{"source": "patent US20070197432A1", "about": "“Peptides for preventing, diagnosing and treating animal and/or human leptospirosis” (priority 2002, published 2007)", "key": {"[1]": {"tested_on": "PP peptide", "assay": "Immunization of rabbit with noncoupled PP peptide, anti-PP IgG ELISA", "assay_type": "in vivo", "protocol": "To test the immunogenicity of the PP peptide alone, immunization with the PP peptide in the rabbit model was carried out, with incomplete Freund's adjuvant being added to each injection.\nMore precisely, two injections of 400 μg of PP peptide with incomplete Freund's adjuvant (v/v) were administered in a total volume of 2 ml.\nThe two injections were administered subcutaneously, two weeks apart. The rabbit serum was recovered two weeks after the second injection. The anti-PP antibodies were titered on this serum.\nThe anti-PP antibodies were titered in the rabbit by the ELISA technique described above, with a biotinylated anti-rabbit antiglobulin (BioAtlantic) at 1/3000 and peroxidase-coupled streptavidin as visualizing agent (RPN1231, Amersham pharmacia biotech)\nThe results of the anti-PP IgG antibody response, expressed as corrected OD (OD at D28, therefore after the second immunization, minus the OD at D0), of the immunization trial with the PP peptide are given in FIG. 3."}, "[2]": {"tested_on": "Leptospira interrogans sl serovar canicola", "assay": "Trial 1: gerbils immunized with PP-KLH, 10^−2.5 canicola challenge", "assay_type": "in vivo, gerbil", "details": "Experiment 1, survival", "protocol": "An immunization/challenge protocol was carried out in order to evaluate the protection that can be provided by the PP peptide (SEQ ID No. 1) coupled to the KLH protein.\nThis construct is administered subcutaneously without adjuvant, with PBS as a negative control (batch 2).\nBatch 1: 10 gerbils, 2 injections of 30 μg of PP-KLH in 300 μl, subcutaneously.\nBatch 2: 10 gerbils, 2 injections of PBS in 300 μl.\nThe two injections in a volume of 300 μl were administered subcutaneously, two weeks apart. A challenge by intraperitoneal injection of 0.5 ml of a canicola culture with a titer of 90 to 100 TU (turbidimetry) diluted to 10^−2.5 was administered two weeks after the second injection. • Antigenic response: Monitoring by ELISA of the immune response of the gerbils against the PP peptide"}, "[3]": {"tested_on": "Leptospira interrogans sl serovar canicola", "assay": "Trial 2: gerbils immunized with PP-KLH or PP, 10^−2 canicola challenge", "assay_type": "in vivo, gerbil", "design": "Mortality rate / Survival rate: unit not given here", "protocol": "An immunization/challenge trial was carried out in order to evaluate the protection that can be provided by the PP peptide (SEQ ID No. 1) coupled or not coupled to the KLH protein.\nThis construct is administered subcutaneously without adjuvant, and PBS is administered by the same route as the negative control (batch 3). • Batch 1: 12 gerbils, 2 injections of 30 μg of PP-KLH in 300 μl. • Batch 2: 12 gerbils, 2 injections of 30 μg of PP in 300 μl. • Batch 3: 15 gerbils, 2 injections of PBS in 300 A1.\nThe two injections in a volume of 300 μl were administered subcutaneously, two weeks apart. A challenge by intraperitoneal injection of 0.5 ml of a serovar canicola leptospiral culture with a titer of 90 to 100 TU (turbidimetry) diluted to 10^−2 was administered three weeks after the second injection."}}, "note": "No end group written: not given here."}
{"sequence": "KAKPVQKLDDDDDGDDTYKEERHNK [PP peptide, 25 amino acid peptide, fragment aa153-aa177 of the PPL protein of Leptospira interrogans]", "values": [{"measurement": "serum dilution at which response against the PP peptide can still be detected", "setting": "[1]; 2 s.c. injections of 400 μg with incomplete Freund's adjuvant, D28", "value": "≥ 102 400"}, {"measurement": "immunogenicity", "setting": "[1]; peptide alone", "value": "very immunogenic"}, {"measurement": "p, log-rank test versus control", "setting": "[2]", "value": "< 0.07"}, {"measurement": "Mortality rate", "setting": "[3]; 10^−2 canicola challenge", "value": 33.3}, {"measurement": "Survival rate", "setting": "[3]; 10^−2 canicola challenge", "value": 66.7}, {"measurement": "mortality in the group (dead/number)", "setting": "[3]; 10^−2 canicola challenge", "value": "4/12"}, {"measurement": "gerbils at challenge", "setting": "[3]; 10^−2 canicola challenge, D0", "value": 12}, {"measurement": "mortality of gerbils (dead/number)", "setting": "[3]; 10^−2 canicola challenge, D4", "value": "0/12"}, {"measurement": "mortality of gerbils (dead/number)", "setting": "[3]; 10^−2 canicola challenge, D5", "value": "0/12"}, {"measurement": "mortality of gerbils (dead/number)", "setting": "[3]; 10^−2 canicola challenge, D6", "value": "0/12"}, {"measurement": "mortality of gerbils (dead/number)", "setting": "[3]; 10^−2 canicola challenge, D7", "value": "0/12"}, {"measurement": "mortality of gerbils (dead/number)", "setting": "[3]; 10^−2 canicola challenge, D8", "value": "2/12"}, {"measurement": "mortality of gerbils (dead/number)", "setting": "[3]; 10^−2 canicola challenge, D9", "value": "2/10"}, {"measurement": "mortality of gerbils (dead/number)", "setting": "[3]; 10^−2 canicola challenge, D10", "value": "0/8"}, {"measurement": "mortality of gerbils (dead/number)", "setting": "[3]; 10^−2 canicola challenge, D11", "value": "0/8"}, {"measurement": "mortality of gerbils (dead/number)", "setting": "[3]; 10^−2 canicola challenge, D12", "value": "0/8"}, {"measurement": "mortality of gerbils (dead/number)", "setting": "[3]; 10^−2 canicola challenge, D13", "value": "0/8"}, {"measurement": "mortality of gerbils (dead/number)", "setting": "[3]; 10^−2 canicola challenge, D14", "value": "0/8"}, {"measurement": "mortality of gerbils (dead/number)", "setting": "[3]; 10^−2 canicola challenge, D15", "value": "0/8"}, {"measurement": "mortality of gerbils (dead/number)", "setting": "[3]; 10^−2 canicola challenge, D16", "value": "0/8"}, {"measurement": "mortality of gerbils (dead/number)", "setting": "[3]; 10^−2 canicola challenge, D17", "value": "0/8"}, {"measurement": "mortality of gerbils (dead/number)", "setting": "[3]; 10^−2 canicola challenge, D28", "value": "0/8"}, {"measurement": "p, log-rank test versus control", "setting": "[3]; Experiment 2, survival", "value": "< 0.02"}, {"measurement": "χ^2, log-rank test versus control", "setting": "[3]; Experiment 2, survival", "value": 5.64}, {"measurement": "p, log-rank test versus control", "setting": "[3]; Experiment 2, survival, listed as PP", "value": "<2.10^−2"}]}
